Assay results published in patent publication US20230054976A1, “METHODS FOR INHIBITION OF ALPHA-SYNUCLEIN mRNA USING SMALL MOLECULES” (The Scripps Research Institute, priority 2019, published 2023).
Entries after “also recorded” stand apart in the source; their conditions may differ.

How the values were obtained:
[1] = tested on: α-synuclein pre-formed fibrils (PFFs) toxicity in SH-SY5Y cells; test: Cell death assay: cytoprotection against α-synuclein pre-formed fibrils (LDH); format: cell-based, human; conditions: 0.25-1 μM pretreatment 24 h, 50 μg/mL PFFs 48 h
Description: Cell death assay. The cytoprotective effect of Synucleozid was tested against α-synuclein PFFs. Human α-synuclein was expressed^78 and fibrillization induced as previously described^79. SH-SY5Y cells were pretreated with Synucleozid (0.25 μM to 1 μM) for 24 h and challenged with 50 μg/mL of α-synuclein PFFs for an additional 48 h in the presence of Synucleozid. Cell death was measured using LDH (Lactate Dehydrogenase) Cytotoxicity Detection Kit (Takara) according to the manufacturer's instructions and plotted either as optical density value or as percentage changes in comparison to respective controls. Monomeric α-synuclein (50 μg/mL) challenge was used as negative control for PFF cytotoxicity. Additional details are provided in the Supporting Information.
Cell death assay. The cytoprotective effect of Synucleozid was tested against α-synuclein preformed fibrils. […] To induce fibrillization of monomertic α-synuclein, the solution was subjected to shaking at 1000 rpm at 37° C. for 7 days on a thermomixer C (Eppendorf), and formation of fibrillar α-synuclein was monitored and confirmed by thioflavin-T assay (8). […] Cell death was measured using LDH (Lactate Dehydrogenase) Cytotoxicity Detection Kit (Takara) according to the manufacturer's instructions and plotted either as optical density value or as percentage changes in comparison to respective controls. […]

[2] = tested on: 2-AP labeled SNCA IRE RNA; test: 2-AP emission assay; format: binding, human; conditions: decrease of 2-AP emission
Description: 2-AP emission assay. One μM 2-AP labeled SNCA IRE RNA was folded by heating to 65° C. for 5 min in 1× Assay Buffer and slowly cooling to room temperature. Bovine serum albumin (BSA) was then added to the RNA solution to 40 μg/mL. After adding Synucleozid to RNA solution at a final concentration […] of 100 μM, serial dilutions were prepared using 1× Assay Buffer including BSA supplemented with folded one μM 2-AP labeled SNCA IRE RNA. The solutions were incubated at room temperature for 30 min in dark and transferred into wells of black 384-well half area plates (Greiner). Fluorescence intensity was measured at room temperature with Tecan plate reader (Gain: 100, Integration time: 40 μs). Fluorescence excitation and emission wavelengths were set at 310 and 380 nm. The change of 2-AP fluorescence intensity as a function of Synucleozid concentration was fit to Eq. (1):
EC50 was calculated from Eq. (1).

[3] = tested on: SNCA IRE dually labeled with Cy3 and Cy5; test: FRET-based ASO-Bind-Map; format: binding, human; conditions: 1 μM, ASO 500 nM
Description: FRET-based ASO-Bind-Map. The SNCA IRE dually labeled with Cy3 and Cy5 dyes (100 nM) was folded by heating at 65° C. for 5 min in 1× Assay Buffer and slowly cooling to room temperature. BSA was added to the RNA solutions to a final concentration of 40 μg/mL followed by addition of compound. The mixtures were incubated at room temperature for 30 min. Fluorescence spectra were then acquired as a function of time (in kinetics mode) for 20 min using a Cary Eclips fluorescence spectrophotometer, with excitation and emission wavelengths of 532/10 nm and 668/5 nm, respectively. The ASO of interest was then added to a final concentration of 500 nM, and fluorescence spectra were acquired as described above.

[4] = tested on: SNCA mRNA; test: ASO-Bind-Map in cells (gapmer ASO, RT-qPCR); format: cell-based, human; conditions: SH-SY5Y cells, gapmer 200 nM
Description: Mapping Synucleozid's binding site in cells with ASO-Bind-Map. SH-SY5Y cells were treated with vehicle (DMSO) or Synucleozid at 60% confluency overnight and were then transfected with a gapmer ASO (200 nM) with Lipofectamine RNAiMAX (Invitrogen) according to the manufacturer's instructions. Mock samples were generated by treating cells with transfection reagent lacking oligonucleotide. RNA extraction, cDNA synthesis and RT-qPCR were performed as described above after 48 h. Primers for SNCA mRNA in this experiment cover sequences upstream and downstream of the IRE; forward primer: [NT]; reverse primer [NT].

[5] = biological target: T1, IRP-1:SNCA IRE RNA complex (Homo sapiens, UniProt P21399); test: In vitro displacement of IRPs by gel mobility shift assay, IRP-1; format: binding; conditions: 0.2, 1, 5 μM; pre-incubation 1-60 min
T1 construct: purchased Abnova
Description: In vitro displacement of IRPs by gel mobility shift assays. SNCA IRE hairpin RNA was 5′-end labeled with [γ-^32P]ATP as previously described^5. Approximately, 2 pmoles of ^32P labeled RNA per 20 μL reaction was folded in 1× Assay Buffer by heating at 65° C. for 5 min and slowly cooling to room temperature. As indicated, vehicle, Synucleozid (0.2, 1, 5 μM) or unlabeled IRE RNA (1 μM, folded as described above and used as a positive control) was added to the samples, and the samples were incubated at room temperature for varying amounts of time (1-60 min as indicated). Then, 0.5 μg IRP-1 or IRP-2 (Abnova) was added, and the samples were incubated at room temperature for an additional 30 min. An equal volume of 2× Native Gel Loading Buffer (2×TBE, 50% Glycerol, 0.025% (w/v) Bromophenol blue and Xylene cyanol FF) was added to each sample. Note, Native Gel Loading Buffer added to Synucleozid-treated samples was supplemented with the same concentration of Synucleozid as in the sample to maintain a constant concentration. IRP:IRE complexes and free IRE were separated on a native 15% polyacrylamide prepared 1×TBE supplemented with the same concentration of Synucleozid as in compound-treated samples, and imaged using a Bio-Rad PMI phosphorimager. Images were quantified with BioRad's Quantity One software.

[6] = tested on: wild type A bulge IRE RNA; test: Thermal melting experiment, wild type IRE
Description: Thermal melting experiment. […] The RNA was heated to 65° C. and slowly cooled to room temperature. […] The absorbance of solution was monitored at 260 nm by a Beckman Coulter DU 800 Spectrophotometer. Background of buffer or buffer plus compound was subtracted from the signal. Resulted melting curves were fitted with MeltWin v3.5 to determine ΔG°, ΔH°, ΔS°, and Tm. The melting temperature was compared to the first derivative value from the raw data for similarity.

[7] = tested on: RNA-2 to 5 (other non-canonically paired regions replaced with base pairs); test: Competitive binding assay (2-AP), RNA-2 to 5
Description: I and I0 are the observed fluorescence intensity in the presence and absence of 2-AP RNA. Δε is the difference between the fluorescence intensity in the absence and presence of infinite 2-AP RNA. […] EC50 was calculated from Eq. (1). […] The change of fluorescence intensity was fit to Eq. (2):
θ is the percentage of 2-AP RNA bound. [RNA] is the concentration of 2-AP RNA. EC50 is the EC50 of Synucleozid determined in the assay above. [Synucleozid] is the concentration of Synucleozid. Cc is the concentration of competitive RNA. Kd is competitive dissociation constant and A is a constant.

T1 sequence (P21399 whole entry, species assumed, one chain of several): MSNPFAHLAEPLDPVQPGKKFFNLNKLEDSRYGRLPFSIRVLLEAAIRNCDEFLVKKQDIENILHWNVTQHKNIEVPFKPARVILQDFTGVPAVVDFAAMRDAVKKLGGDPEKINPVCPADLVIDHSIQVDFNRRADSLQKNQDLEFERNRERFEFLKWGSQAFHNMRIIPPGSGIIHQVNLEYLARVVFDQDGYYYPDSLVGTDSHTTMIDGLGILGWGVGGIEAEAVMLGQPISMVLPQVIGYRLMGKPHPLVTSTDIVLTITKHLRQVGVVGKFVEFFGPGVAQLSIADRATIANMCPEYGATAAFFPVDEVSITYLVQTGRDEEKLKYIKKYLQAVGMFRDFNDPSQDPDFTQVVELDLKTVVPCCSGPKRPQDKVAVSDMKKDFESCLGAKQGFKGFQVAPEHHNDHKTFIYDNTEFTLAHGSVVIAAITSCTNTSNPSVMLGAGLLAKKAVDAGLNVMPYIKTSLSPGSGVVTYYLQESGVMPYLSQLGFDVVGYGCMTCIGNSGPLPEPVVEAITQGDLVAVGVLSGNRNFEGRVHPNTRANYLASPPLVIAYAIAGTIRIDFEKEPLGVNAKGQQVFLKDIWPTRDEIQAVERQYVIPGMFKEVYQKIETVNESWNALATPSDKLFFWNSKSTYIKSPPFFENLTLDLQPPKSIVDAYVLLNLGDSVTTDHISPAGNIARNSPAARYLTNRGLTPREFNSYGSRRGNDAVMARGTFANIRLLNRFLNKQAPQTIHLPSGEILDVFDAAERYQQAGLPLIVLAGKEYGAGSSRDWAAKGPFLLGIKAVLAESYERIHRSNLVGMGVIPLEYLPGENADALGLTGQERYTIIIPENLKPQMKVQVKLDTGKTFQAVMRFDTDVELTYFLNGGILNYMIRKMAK

N=C(N)c1ccc(Nc2ccc(-c3cc4ccc(C(=N)N)cc4[nH]3)cc2)cc1 [Synucleozid A]
cytoprotection against toxicity of α-synuclein PFFs (LDH release) [1]: mitigated the toxicity induced by PFFs in a concentration dependent manner | cytoprotection against toxicity of α-synuclein PFFs (LDH release) ([1]; listed as Synucleozid): abrogates cytotoxicity | EC50 [2]: 2.72 ± 0.37 µM | EC50 ([2]; listed as Synucleozid): 2.7 ± 0.4 µM | reduction of ASO-induced unfolding (FRET) [3]: only able to reduce the extent of unfolding induced by ASO(1-10) and ASO(40-50) | effect on SNCA mRNA cleavage by ASO(29-39) [4]: no effect; also recorded: Protection is not observed | effect with the control ASO [4]: no effect | EC50 ([4]; read-out: EC50 for inhibition of SNCA mRNA cleavage by ASO(1-10)): 1 µM | effect on binding of IRP-1 to SNCA IRE RNA [5]: Neither Synucleozid concentration (0.2, 1, 5 μM) nor pre-incubation time (1, 5, 15, 60 min) has any significant effect | increase of Tm of wild type IRE [6]: 3 °C | Tm of wild type IRE in presence of Synucleozid ([6]; from 51.4 without compound): 54.8 °C | ΔG37° of wild type IRE in presence of Synucleozid ([6]; from −2.91 without compound): -13.5 kJ/mol | effect of mutation on Synucleozid binding [7]: no effect
